Assay results published in the supplement of paper PMC10307832.

Tests used:
Assay in all cases: relative viability (nuclei count vs DMSO), 5 days (fraction); higher = more cells survive
Carboplatin = compound: C1CC(C1)(C(=O)O)C(=O)O.[NH2-].[NH2-].[Pt+2] [Carboplatin]
How it was run: (§1)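 MetaXpress counted nuclei in 4× images of lung cancer cell lines that had been fixed, permeabilised and Hoechst-stained in one step. Before that, cells in 1536-well plates were kept overnight at 37 °C, pinned with five √10-spaced library-drug doses on vehicle-anchored plates, and cultured 5 days without medium change. Viability takes treated-well nuclei over vehicle-well nuclei and uses the median across plates. Plates were accepted only at control CV below 25% and at least one doubling.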

GSK126 = compound: CC[C@H](C)N1C=C(C2=C(C=C(C=C21)C3=CN=C(C=C3)N4CCNCC4)C(=O)NCC5=C(C=C(NC5=O)C)C)C [GSK126]
How it was run: as §1

MLN4924 = compound: NS(=O)(=O)OC[C@@H]1C[C@@H](n2ccc3c(N[C@H]4CCc5ccccc54)ncnc32)C[C@@H]1O [MLN4924]
How it was run: as §1

GSK126 + Dasatinib = compound: CC[C@H](C)N1C=C(C2=C(C=C(C=C21)C3=CN=C(C=C3)N4CCNCC4)C(=O)NCC5=C(C=C(NC5=O)C)C)C [GSK126] + Cc1nc(Nc2ncc(C(=O)Nc3c(C)cccc3Cl)s2)cc(N2CCN(CCO)CC2)n1 [Dasatinib] (partner 0.075 µM)
How it was run: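 Lung cancer cell lines in 1536-well plates got either a single drug or a fixed anchor-drug dose together with five library-drug doses (not always all listed) in √10 steps, by pin tool, on the day after seeding. Nuclei were counted after 5 days, and relative viability is the treated-to-vehicle ratio of nuclei counts. Values are medians of duplicate plates.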

| Cell Line | relative viability (Carboplatin; 0.08 µM) | relative viability (Carboplatin; 0.253 µM) | relative viability (Carboplatin; 0.8 µM) | relative viability (Carboplatin; 2.53 µM) | relative viability (Carboplatin; 8 µM) | relative viability (GSK126; 0.08 µM) | relative viability (GSK126; 0.253 µM) | relative viability (GSK126; 0.8 µM) | relative viability (GSK126; 2.53 µM) | relative viability (GSK126; 8 µM) | relative viability (MLN4924; 0.04 µM) | relative viability (MLN4924; 0.1265 µM) | relative viability (MLN4924; 0.4 µM) | relative viability (MLN4924; 1.265 µM) | relative viability (MLN4924; 4 µM) | relative viability (GSK126 + Dasatinib; first compound 0.08 µM) | relative viability (GSK126 + Dasatinib; first compound 0.253 µM) | relative viability (GSK126 + Dasatinib; first compound 0.8 µM) | relative viability (GSK126 + Dasatinib; first compound 2.53 µM) | relative viability (GSK126 + Dasatinib; first compound 8 µM) |
| --- | --- | --- | --- | --- | --- | --- | --- | --- | --- | --- | --- | --- | --- | --- | --- | --- | --- | --- | --- | --- |
| HCC-44 | 1.04 | 0.92 | 0.949 | 0.915 | 0.723 | 1.03 | 1 | 1.01 | 0.869 | 1.05 | 0.635 | 0.683 | 0.219 | 0.217 | 0.225 |  |  |  |  |  |
| HCC-78 | 1.09 | 0.982 | 1.02 | 0.927 | 0.905 | 0.984 | 1.06 | 1 | 0.976 | 0.904 | 0.968 | 0.771 | 0.849 | 0.323 | 0.265 | 0.423 | 0.51 | 0.357 | 0.355 | 0.367 |
| HCC-366 | 1.04 | 0.974 | 1.03 | 1.02 | 0.95 | 1.12 | 1.03 | 1.02 | 1.01 | 1 | 1.05 | 1.02 | 0.674 | 0.228 | 0.0735 | 0.77 | 0.654 | 0.586 | 0.696 | 0.591 |
| HCC-827 | 1.09 | 1.01 | 1.01 | 1.01 | 0.983 | 1.05 | 1.06 | 1.01 | 1.01 | 0.993 | 0.972 | 0.852 | 0.704 | 0.253 | 0.183 | 0.333 | 0.275 | 0.401 | 0.396 | 0.287 |
| HOP-62 | 1.03 | 1.03 | 1.06 | 0.981 | 0.833 | 1.01 | 1.02 | 1.03 | 0.968 | 0.973 | 0.814 | 0.74 | 0.226 | 0.067 | 0.101 | 0.829 | 0.583 | 0.636 | 0.566 | 0.595 |
| IA-LM | 1.08 | 1.06 | 0.927 | 0.835 | 0.778 | 1.04 | 0.906 | 0.925 | 0.997 | 0.894 | 0.573 | 0.29 | 0.14 | 0.0648 | 0.0764 |  |  |  |  |  |
| LC-2-ad | 1.01 | 0.948 | 0.955 | 0.953 | 0.849 | 1.09 | 0.985 | 0.988 | 1.02 | 1.05 | 0.922 | 0.825 | 0.521 | 0.235 | 0.181 | 0.606 | 0.66 | 0.565 | 0.643 | 0.585 |
| LCLC-97TM1 | 1.13 | 0.978 | 1.09 | 1.03 | 0.837 | 0.999 | 0.965 | 0.91 | 1.02 | 1.11 | 0.929 | 0.657 | 0.31 | 0.073 | 0.0774 | 0.845 | 0.922 | 0.918 | 0.822 | 0.897 |
| LCLC-103H | 1.03 | 0.989 | 0.992 | 1.07 | 0.834 | 1.02 | 1.03 | 1.01 | 0.994 | 1.01 | 0.949 | 1.02 | 0.912 | 0.282 | 0.312 | 0.485 | 0.45 | 0.464 | 0.447 | 0.51 |
| LK-2 | 1.11 | 0.943 | 0.947 | 0.937 | 1.06 | 1.01 | 0.988 | 0.985 | 1.08 | 0.994 | 0.971 | 0.787 | 0.618 | 0.245 | 0.239 | 0.361 | 0.336 | 0.196 | 0.41 | 0.259 |
| LOU-NH91 | 1.16 | 0.938 | 0.96 | 0.969 | 0.936 | 0.966 | 0.978 | 0.95 | 1.06 | 0.985 | 0.997 | 1.13 | 0.929 | 0.543 | 0.563 | 0.552 | 0.609 | 0.538 | 0.594 | 0.567 |
| LU99A | 1.15 | 1.08 | 1.03 | 0.901 | 0.702 | 1.04 | 0.985 | 0.912 | 1.02 | 0.904 | 0.918 | 0.601 | 0.405 | 0.178 | 0.195 | 0.648 | 0.467 | 0.718 | 0.526 | 0.568 |
| LXF-289 | 1.03 | 1.05 | 0.967 | 0.987 | 0.973 | 1.03 | 1.05 | 1.02 | 1.01 | 1.01 | 0.887 | 0.822 | 0.556 | 0.208 | 0.146 | 0.31 | 0.223 | 0.19 | 0.257 | 0.358 |
| NCI-H23 | 1.13 | 1.01 | 0.991 | 1.02 | 0.792 | 1.03 | 0.949 | 1.02 | 1.18 | 1.21 | 0.815 | 0.721 | 0.462 | 0.204 | 0.206 | 0.884 | 0.789 | 0.782 | 0.858 | 0.749 |
| NCI-H1299 | 1.05 | 0.98 | 1.02 | 0.969 | 0.943 | 1.02 | 0.994 | 0.988 | 1 | 0.998 | 1.01 | 0.823 | 0.676 | 0.287 | 0.212 |  |  |  |  |  |
| NCI-H1648 | 1.13 | 0.878 | 0.871 | 0.6 | 0.813 | 0.932 | 0.783 | 1.07 | 1.2 | 0.725 | 0.635 | 0.448 | 0.329 | 0.246 | 0.32 |  |  |  |  |  |
| NCI-H1703 | 1.27 | 1.1 | 0.998 | 1.05 | 1.01 | 1.21 | 0.834 | 0.96 | 1.04 | 1.13 | 0.43 | 0.314 | 0.255 | 0.136 | 0.141 |  |  |  |  |  |
